{
  "source": "patent US11572590B2",
  "about": "“Methods for evaluating tumor cell spheroids using 3D microfluidic cell culture device” (Dana-Farber Cancer Institute, Inc., priority 2017, dated 2023)",
  "experiment_in_all_cases": "SelectScreen Kinase Profiling, single point inhibition and IC50 for off-target kinases",
  "format_in_all_cases": "biochemical",
  "key": {"off-target kinases [1]": {"target": "T1, off-target kinases (Homo sapiens, UniProt P42680)", "T1 sequence (P42680 1-631)": "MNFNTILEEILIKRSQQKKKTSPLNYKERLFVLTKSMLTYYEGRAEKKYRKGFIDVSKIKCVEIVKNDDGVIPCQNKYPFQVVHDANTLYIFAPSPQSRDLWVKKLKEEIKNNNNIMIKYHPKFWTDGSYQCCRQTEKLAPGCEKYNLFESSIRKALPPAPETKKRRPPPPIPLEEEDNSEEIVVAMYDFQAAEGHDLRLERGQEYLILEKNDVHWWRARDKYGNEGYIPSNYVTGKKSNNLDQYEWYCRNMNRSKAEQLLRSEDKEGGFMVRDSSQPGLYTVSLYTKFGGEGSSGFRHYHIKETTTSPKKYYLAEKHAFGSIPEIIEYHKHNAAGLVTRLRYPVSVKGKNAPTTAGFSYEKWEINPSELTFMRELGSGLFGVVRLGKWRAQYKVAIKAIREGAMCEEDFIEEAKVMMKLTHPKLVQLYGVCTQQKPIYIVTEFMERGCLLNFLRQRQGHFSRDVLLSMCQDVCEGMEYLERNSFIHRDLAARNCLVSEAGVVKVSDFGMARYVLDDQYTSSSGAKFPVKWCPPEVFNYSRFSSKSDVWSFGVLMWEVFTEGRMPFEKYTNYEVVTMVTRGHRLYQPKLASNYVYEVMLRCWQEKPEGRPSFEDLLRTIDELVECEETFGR", "conditions": "TEC, LanthaScreen Binding"}, "off-target kinases [2]": {"target": "off-target kinases (Homo sapiens, UniProt P29376)", "sequence (P29376 17-864)": "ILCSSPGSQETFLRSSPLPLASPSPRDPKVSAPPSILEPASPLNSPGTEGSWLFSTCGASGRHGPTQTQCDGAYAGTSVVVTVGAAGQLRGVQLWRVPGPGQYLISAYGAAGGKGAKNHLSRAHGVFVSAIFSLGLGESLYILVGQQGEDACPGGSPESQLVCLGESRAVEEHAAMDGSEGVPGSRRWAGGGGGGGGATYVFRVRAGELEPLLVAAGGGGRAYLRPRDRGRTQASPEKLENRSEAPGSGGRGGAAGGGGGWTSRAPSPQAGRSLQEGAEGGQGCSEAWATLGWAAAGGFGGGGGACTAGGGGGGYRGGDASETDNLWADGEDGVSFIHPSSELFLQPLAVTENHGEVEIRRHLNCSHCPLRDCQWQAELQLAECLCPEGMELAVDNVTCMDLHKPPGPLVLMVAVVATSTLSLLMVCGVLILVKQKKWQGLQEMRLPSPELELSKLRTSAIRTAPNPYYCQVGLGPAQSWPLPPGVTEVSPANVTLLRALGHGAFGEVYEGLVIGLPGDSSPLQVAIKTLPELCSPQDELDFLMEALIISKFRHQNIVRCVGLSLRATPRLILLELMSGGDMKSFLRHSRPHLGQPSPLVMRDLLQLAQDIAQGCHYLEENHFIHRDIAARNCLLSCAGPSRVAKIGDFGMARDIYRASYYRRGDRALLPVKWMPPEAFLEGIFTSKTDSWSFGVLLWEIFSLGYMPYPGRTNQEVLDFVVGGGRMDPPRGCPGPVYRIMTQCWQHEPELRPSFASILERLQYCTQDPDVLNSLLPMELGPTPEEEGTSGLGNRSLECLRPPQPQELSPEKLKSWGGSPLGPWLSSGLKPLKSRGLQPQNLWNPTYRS", "conditions": "LTK (TYK1), ZLYTE, ATP Km app"}, "off-target kinases [3]": {"target": "T2, off-target kinases (Homo sapiens, UniProt O75385)", "T2 sequence (O75385 1-1050)": "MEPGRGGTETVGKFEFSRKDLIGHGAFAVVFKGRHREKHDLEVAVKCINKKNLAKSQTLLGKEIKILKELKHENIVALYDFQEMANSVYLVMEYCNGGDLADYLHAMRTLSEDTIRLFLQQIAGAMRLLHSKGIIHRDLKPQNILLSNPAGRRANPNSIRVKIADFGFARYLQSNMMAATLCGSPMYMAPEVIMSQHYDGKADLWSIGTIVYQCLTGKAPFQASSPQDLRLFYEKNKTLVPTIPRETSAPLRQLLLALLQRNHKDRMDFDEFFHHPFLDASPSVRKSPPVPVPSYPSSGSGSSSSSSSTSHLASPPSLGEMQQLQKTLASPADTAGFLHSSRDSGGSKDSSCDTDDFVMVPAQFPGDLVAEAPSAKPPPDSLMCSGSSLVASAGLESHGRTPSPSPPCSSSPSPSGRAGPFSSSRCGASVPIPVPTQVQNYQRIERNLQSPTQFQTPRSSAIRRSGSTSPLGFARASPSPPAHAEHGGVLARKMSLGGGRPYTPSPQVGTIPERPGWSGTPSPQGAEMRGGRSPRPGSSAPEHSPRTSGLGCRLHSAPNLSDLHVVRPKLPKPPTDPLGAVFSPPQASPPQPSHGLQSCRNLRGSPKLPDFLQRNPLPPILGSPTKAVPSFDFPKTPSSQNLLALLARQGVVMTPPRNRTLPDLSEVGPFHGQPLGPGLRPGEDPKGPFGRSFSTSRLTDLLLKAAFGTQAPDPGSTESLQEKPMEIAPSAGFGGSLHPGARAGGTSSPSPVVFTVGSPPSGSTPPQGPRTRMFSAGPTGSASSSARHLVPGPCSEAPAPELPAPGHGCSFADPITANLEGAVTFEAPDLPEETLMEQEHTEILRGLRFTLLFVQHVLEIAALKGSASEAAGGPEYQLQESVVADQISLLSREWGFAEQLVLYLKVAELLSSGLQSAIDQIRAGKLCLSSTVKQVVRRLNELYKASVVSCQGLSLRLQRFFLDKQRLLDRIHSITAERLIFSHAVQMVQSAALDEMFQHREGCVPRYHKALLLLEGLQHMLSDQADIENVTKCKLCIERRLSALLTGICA", "conditions": "ULK1, LanthaScreen Binding"}, "off-target kinases [4]": {"target": "off-target kinases (Homo sapiens, UniProt O00238)", "sequence (O00238 14-502)": "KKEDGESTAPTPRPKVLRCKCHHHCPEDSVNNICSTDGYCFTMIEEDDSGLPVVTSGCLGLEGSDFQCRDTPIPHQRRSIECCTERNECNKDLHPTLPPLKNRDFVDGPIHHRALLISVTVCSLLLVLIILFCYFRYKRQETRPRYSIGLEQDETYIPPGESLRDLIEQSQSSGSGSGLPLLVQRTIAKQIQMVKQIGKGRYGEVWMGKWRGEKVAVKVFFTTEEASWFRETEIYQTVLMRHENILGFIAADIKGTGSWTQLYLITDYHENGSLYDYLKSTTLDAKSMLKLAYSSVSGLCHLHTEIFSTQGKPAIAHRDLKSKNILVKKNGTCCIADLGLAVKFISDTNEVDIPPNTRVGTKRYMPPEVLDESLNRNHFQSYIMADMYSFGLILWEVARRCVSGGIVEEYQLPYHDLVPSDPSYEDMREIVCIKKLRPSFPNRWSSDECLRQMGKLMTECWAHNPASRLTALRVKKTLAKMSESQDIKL", "conditions": "BMPR1B (ALK6), LanthaScreen Binding"}},
  "note": "Read-outs that look alike come from different tables or passages of the source.",
  "data": [
    {"compound": "N#Cc1cc(-c2ncnc(Nc3ccc(N4CCN(C5COC5)CC4)cc3)n2)ccc1OC1CCOCC1", "note": "[Compound 1, 5-(4-((4-(4-(oxetan-3-yl)piperazin-1-yl)phenyl)amino)-1,3,5-triazin-2-yl)-2-((tetrahydro-2H-pyran-4-yl)oxy)benzonitrile]", "values": [
      {"measurement": "inhibition", "setting": "off-target kinases [1]; read-out: % Inhibition 1", "value": 0, "unit": "%"},
      {"measurement": "inhibition", "setting": "off-target kinases [1]; read-out: % Inhibition 2", "value": 2, "unit": "%"},
      {"measurement": "inhibition", "setting": "off-target kinases [1]; read-out: % Inhibition Avg", "value": 1, "unit": "%"},
      {"measurement": "inhibition", "setting": "off-target kinases [2]; read-out: % Inhibition 1", "value": 5, "unit": "%"},
      {"measurement": "inhibition", "setting": "off-target kinases [2]; read-out: % Inhibition 2", "value": 7, "unit": "%"},
      {"measurement": "inhibition", "setting": "off-target kinases [2]; read-out: % Inhibition Avg", "value": 6, "unit": "%"},
      {"measurement": "inhibition", "setting": "off-target kinases [3]; read-out: % Inhibition 1", "value": 91, "unit": "%"},
      {"measurement": "inhibition", "setting": "off-target kinases [3]; read-out: % Inhibition 2", "value": 92, "unit": "%"},
      {"measurement": "inhibition", "setting": "off-target kinases [3]; read-out: % Inhibition Avg", "value": 92, "unit": "%"},
      {"measurement": "inhibition", "setting": "off-target kinases [4]; read-out: % Inhibition 1", "value": 56, "unit": "%"},
      {"measurement": "inhibition", "setting": "off-target kinases [4]; read-out: % Inhibition 2", "value": 60, "unit": "%"},
      {"measurement": "inhibition", "setting": "off-target kinases [4]; read-out: % Inhibition Avg", "value": 58, "unit": "%"}
    ]}
  ]
}
